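48-hour exposure; five concentrations; linearly interpolated endpoints. The concentration for 50% growth inhibition is given as GI50.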 Activity calls are given as the source filed them. No stated cut-off is given here; in the data, active = GI50 up to about 1.1 µM and inactive = higher.
Legend:
Test in all cases: NCI-60 cell line screen, 48 h
[1] = system: COLO 205
[2] = system: NCI-H226
[3] = system: OVCAR-5
[4] = system: A498
[5] = system: SN12C
[6] = system: T47D
[7] = system: IGROV-1
[8] = system: SF-295
[9] = system: OVCAR-8
[10] = system: OVCAR-3
[11] = system: HOP-62
[12] = system: HCT-116
[13] = system: RPMI-8226
[14] = system: PC-3
[15] = system: SK-MEL-28
[16] = system: MDA-N
[17] = system: HCC 2998
[18] = system: OVCAR-4
[19] = system: MDA-MB-435

Measured: GI50

CC(=O)c1c[nH]cc1CO
inactive: [1] > 10 µM | [2] > 10 µM | [3] > 10 µM | [4] > 10 µM | [5] > 10 µM | [6] > 10 µM | [7] > 10 µM | [8] > 10 µM | [9] > 10 µM | [10] > 10 µM | [11] > 10 µM | [12] > 10 µM | [13] > 10 µM | [14] > 10 µM | [15] > 10 µM | [16] > 10 µM | [17] > 10 µM

O=C1Nc2ccccc2/C1=N/Nc1nc(-c2ccc([N+](=O)[O-])cc2)cs1
inactive: [1] 44.2 µM | [2] 38.9 µM | [18] 18.1 µM | [3] 22 µM | [19] 24.7 µM | [5] 27 µM | [6] 29.1 µM | [7] 18.7 µM | [8] 24.1 µM | [9] 16.8 µM | [10] 30.8 µM | [11] > 100 µM | [12] 29.6 µM | [14] 24 µM | [15] 29.7 µM | [16] 27 µM | [17] 21.9 µM

Cc1ccc(S(=NS(=O)(=O)c2ccc(C)cc2)c2ccc(C)cc2)cc1
inactive: [1] 54.7 µM | [2] > 100 µM | [3] > 100 µM | [19] 60.3 µM | [5] > 100 µM | [6] 56 µM | [8] 75.7 µM | [9] 71.6 µM | [10] 76 µM | [11] > 100 µM | [12] 56.9 µM | [13] > 100 µM | [14] 64 µM | [15] > 100 µM | [16] 77.1 µM

COc1ccc(/C=c2/sc3n(c2=O)C(c2ccccc2)C2(O)CCCCC2N=3)cc1 (stereo unspecified)
inactive: [2] > 12.5 µM | [18] > 12.5 µM | [3] > 12.5 µM | [19] > 12.5 µM | [6] > 12.5 µM | [7] > 12.5 µM | [9] > 12.5 µM | [10] > 12.5 µM | [11] > 12.5 µM | [12] > 12.5 µM | [13] > 12.5 µM | [14] > 12.5 µM | [15] > 12.5 µM | [16] > 12.5 µM | [17] > 12.5 µM

Cc1ccccc1C(C#N)/C(=N/NC(=O)c1cc2ccccc2cc1O)C(=O)Nc1cccc(Cl)c1 (stereo unspecified)
inactive: [1] 24.4 µM | [2] 18.5 µM | [18] 21.6 µM | [3] 13.4 µM | [4] 41.4 µM | [5] 35.6 µM | [7] 9.93 µM | [8] 21.1 µM | [9] 8.85 µM | [10] 5.42 µM | [11] 27.5 µM | [12] 14.5 µM | [13] 21.3 µM | [15] 25.1 µM | [17] 28.8 µM

COC(=O)CCC(=O)CC(=O)C(=O)Nc1c(Cl)cc([N+](=O)[O-])cc1Cl
inactive: [1] > 100 µM | [2] > 100 µM | [18] > 100 µM | [3] > 100 µM | [4] 57.3 µM | [5] > 100 µM | [7] > 100 µM | [8] > 100 µM | [9] > 100 µM | [10] > 100 µM | [11] > 100 µM | [12] 42.3 µM | [13] 33.4 µM | [15] > 100 µM | [17] > 100 µM

C/C(=N\NC(=O)c1ccncc1)c1cccc(F)c1
inactive: [1] > 10 µM | [2] > 10 µM | [3] > 10 µM | [4] > 10 µM | [5] > 10 µM | [6] > 10 µM | [7] > 10 µM | [8] > 10 µM | [9] > 10 µM | [10] > 10 µM | [11] > 10 µM | [12] > 10 µM | [13] > 10 µM | [14] > 10 µM | [15] > 10 µM | [16] > 10 µM | [17] > 10 µM

Reference: ChEMBL document CHEMBL1201862, “PubChem BioAssay data set” (2004)
